One test has as its target T1, LRRK2 WT (Homo sapiens, UniProt Q5S007).
T1 construct: purchased Life Technologies PR8604B
Nature of the test: LRRK2 Kinase Activity Assay (LanthaScreen TR-FRET), wild type. Type of test: biochemical. As to conditions: recombinant wild type LRRK2, 25 μM ATP, 400 nM LRRKtide, 60 min; class symbols. In a few lines:
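Recombinant wild-type or G2019S LRRK2 incubated with fluorescein-labeled LRRKtide (ERM-based) peptide, ATP and serially diluted compound for 60 min at room temperature.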

For a further test, the target named is T2, LRRK2 G2019S (Homo sapiens, UniProt Q5S007, G2019S).
T2 construct: purchased Life Technologies PV4881
Nature of the test: LRRK2 Kinase Activity Assay (LanthaScreen TR-FRET), G2019S. As to conditions: recombinant G2019S-LRRK2, 25 μM ATP, 400 nM LRRKtide, 60 min; class symbols. Type of test: biochemical. How it is done:
LRRK2 kinase activity was measured using a LanthaScreen™ Kinase Activity Assay from ThermoFisher Scientific. Recombinant wild type or G2019S-LRRK2 protein (Life Technologies, PR8604B or PV4881, respectively), was incubated with a fluorescein-labeled peptide substrate called LRRKtide that is based upon ezrin/radixin/moesin (ERM) (Life Technologies, PV4901) in the presence of ATP and serially diluted compound. […] Compound-dependent inhibition of the TR-FRET signal was used to generate a concentration-response curve for IC50 determination.
After 60 min incubation at room temperature, the reaction was stopped by addition of 10 μL of 2×stop solution containing a final concentration of 2 nM anti-pERM antibody and 10 mM EDTA.
A general note: Time-resolved FRET reads energy transfer from a long-lived donor to a nearby acceptor.

Bounds are passed on as bounds.

T2 sequence (Q5S007 whole entry G2019S): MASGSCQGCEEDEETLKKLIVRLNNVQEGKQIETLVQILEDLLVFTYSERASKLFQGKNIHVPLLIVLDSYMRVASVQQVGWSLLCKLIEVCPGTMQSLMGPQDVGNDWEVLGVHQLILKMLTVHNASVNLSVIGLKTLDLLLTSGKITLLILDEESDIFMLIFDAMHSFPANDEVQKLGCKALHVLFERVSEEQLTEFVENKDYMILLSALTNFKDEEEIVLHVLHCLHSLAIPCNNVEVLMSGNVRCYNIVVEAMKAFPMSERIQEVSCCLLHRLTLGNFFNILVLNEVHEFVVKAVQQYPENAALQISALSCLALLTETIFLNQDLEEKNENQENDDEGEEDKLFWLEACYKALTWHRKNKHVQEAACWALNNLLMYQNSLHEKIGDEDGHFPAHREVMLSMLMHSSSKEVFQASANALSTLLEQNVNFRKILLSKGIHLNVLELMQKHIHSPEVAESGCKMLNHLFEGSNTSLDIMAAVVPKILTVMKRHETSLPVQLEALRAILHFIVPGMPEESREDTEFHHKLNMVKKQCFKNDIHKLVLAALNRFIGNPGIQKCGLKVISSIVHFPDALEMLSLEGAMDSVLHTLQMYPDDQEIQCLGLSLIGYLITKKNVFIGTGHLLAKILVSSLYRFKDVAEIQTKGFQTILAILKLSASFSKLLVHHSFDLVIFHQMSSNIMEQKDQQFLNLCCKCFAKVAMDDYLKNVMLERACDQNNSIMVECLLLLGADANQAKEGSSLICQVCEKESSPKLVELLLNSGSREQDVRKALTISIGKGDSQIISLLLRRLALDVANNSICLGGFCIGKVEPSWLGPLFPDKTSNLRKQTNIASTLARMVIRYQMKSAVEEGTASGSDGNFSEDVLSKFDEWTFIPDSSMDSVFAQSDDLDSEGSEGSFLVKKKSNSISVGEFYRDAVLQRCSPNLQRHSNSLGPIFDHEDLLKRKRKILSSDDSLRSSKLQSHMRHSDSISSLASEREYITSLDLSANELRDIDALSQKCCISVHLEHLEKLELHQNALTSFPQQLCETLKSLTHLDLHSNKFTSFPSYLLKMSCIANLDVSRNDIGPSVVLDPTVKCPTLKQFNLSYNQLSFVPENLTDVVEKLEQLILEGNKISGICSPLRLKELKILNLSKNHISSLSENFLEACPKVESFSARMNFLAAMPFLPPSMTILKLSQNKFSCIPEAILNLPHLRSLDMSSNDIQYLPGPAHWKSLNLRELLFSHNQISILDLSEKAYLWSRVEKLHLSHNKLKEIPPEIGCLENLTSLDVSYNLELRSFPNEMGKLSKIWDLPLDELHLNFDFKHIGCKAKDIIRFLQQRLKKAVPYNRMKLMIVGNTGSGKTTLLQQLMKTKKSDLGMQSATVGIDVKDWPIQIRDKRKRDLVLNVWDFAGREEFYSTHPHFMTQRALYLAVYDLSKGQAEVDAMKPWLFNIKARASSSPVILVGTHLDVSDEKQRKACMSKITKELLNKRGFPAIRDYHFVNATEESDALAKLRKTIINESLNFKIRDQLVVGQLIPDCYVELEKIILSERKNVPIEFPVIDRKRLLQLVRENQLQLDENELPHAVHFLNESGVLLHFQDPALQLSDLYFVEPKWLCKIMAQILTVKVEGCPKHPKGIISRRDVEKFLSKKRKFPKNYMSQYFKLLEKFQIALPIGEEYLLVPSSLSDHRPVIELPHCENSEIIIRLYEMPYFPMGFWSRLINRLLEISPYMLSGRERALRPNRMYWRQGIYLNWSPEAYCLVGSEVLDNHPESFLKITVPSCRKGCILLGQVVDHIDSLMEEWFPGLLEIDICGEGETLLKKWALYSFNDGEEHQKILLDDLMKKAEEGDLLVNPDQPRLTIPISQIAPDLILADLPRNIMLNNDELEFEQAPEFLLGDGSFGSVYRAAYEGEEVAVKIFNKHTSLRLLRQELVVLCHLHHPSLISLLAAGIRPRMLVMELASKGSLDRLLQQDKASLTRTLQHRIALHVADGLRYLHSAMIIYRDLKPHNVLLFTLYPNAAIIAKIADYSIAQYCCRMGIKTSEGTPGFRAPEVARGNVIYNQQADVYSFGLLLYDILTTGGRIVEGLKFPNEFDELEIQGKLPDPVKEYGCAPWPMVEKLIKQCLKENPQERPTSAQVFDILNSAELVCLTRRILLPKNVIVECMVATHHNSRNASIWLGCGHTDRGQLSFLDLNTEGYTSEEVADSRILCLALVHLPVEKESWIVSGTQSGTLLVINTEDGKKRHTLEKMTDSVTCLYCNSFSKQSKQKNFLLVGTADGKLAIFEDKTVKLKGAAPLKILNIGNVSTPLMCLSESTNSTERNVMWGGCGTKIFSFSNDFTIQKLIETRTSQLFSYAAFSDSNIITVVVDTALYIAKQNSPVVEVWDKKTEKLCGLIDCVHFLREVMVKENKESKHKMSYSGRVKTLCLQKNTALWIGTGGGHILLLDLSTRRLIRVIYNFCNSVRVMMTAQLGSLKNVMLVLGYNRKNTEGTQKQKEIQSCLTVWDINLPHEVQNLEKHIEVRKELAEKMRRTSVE
T1 sequence (Q5S007 whole entry): as the sequence (Q5S007 whole entry G2019S) above, with S2019G counted along it

Turning to `COc1n[nH]c2ccc(O[C@H]3CCCc4cc(C#N)c(Br)nc43)cc12` (single isomer, unassigned) [188, enantiomer 2, 2-Bromo-8-[(3-methoxy-1H-indazol-5-yl)oxy]-5,6,7,8-tetrahydroquinoline-3-carbonitrile], the IC50 at LRRK2 WT lay in the range of 1 to 10 µM; at LRRK2 G2019S, 0.1 to 1 µM.

In the case of `COc1n[nH]c2ccc(O[C@H]3CCc4cc(C#N)c(Cl)cc43)cc12` (single isomer, unassigned) [189, enantiomer 1, 6-Chloro-1-[(3-methoxy-1H-indazol-5-yl)oxy]-2,3-dihydro-1H-indene-5-carbonitrile], the IC50 at LRRK2 WT fell in the range of 1 to 10 µM; on LRRK2 G2019S it was 0.1 to 1 µM.

For the compound `COc1n[nH]c2ccc(O[C@H]3CCc4cc(C#N)c(Cl)cc43)cc12` (single isomer, unassigned) [189, enantiomer 2, 6-Chloro-1-[(3-methoxy-1H-indazol-5-yl)oxy]-2,3-dihydro-1H-indene-5-carbonitrile], the IC50 at LRRK2 WT was 0.1 to 1 µM; at LRRK2 G2019S, < 0.1 µM.

As to `Cc1cc2[nH]nc(-c3cnco3)c2cc1NC1CCCc2cc(C#N)cnc21` (single isomer, unassigned) [190, enantiomer 1, 8-[[6-Methyl-3-(1,3-oxazol-5-yl)-1H-indazol-5-yl]amino]-5,6,7,8-tetrahydroquinoline-3-carbonitrile], the IC50 on LRRK2 WT and at LRRK2 G2019S was < 0.1 µM throughout.

`N#Cc1ccc2c(c1)OCC[C@@H]2Nc1ccc2[nH]nc(-c3cnco3)c2c1` (single isomer, unassigned) [191, enantiomer 1, 4-((3-(oxazol-5-yl)-1H-indazol-5-yl)amino)chromane-7-carbonitrile]: the IC50 on LRRK2 WT is 0.1 to 1 µM; on LRRK2 G2019S, < 0.1 µM.

As to `N#Cc1ccc2c(c1)OCC[C@@H]2Nc1ccc2[nH]nc(-c3cnco3)c2c1` (single isomer, unassigned) [191, enantiomer 2, 4-{[3-(1,3-oxazol-5-yl)-1H-indazol-5-yl]amino}-3,4-dihydro-2H-1-benzopyran-7-carbonitrile], the half-maximal inhibitory concentration (IC50) on LRRK2 WT and at LRRK2 G2019S was < 0.1 µM in each case.

Turning to `N#Cc1ccc2c(c1)OCC[C@@H]2Nc1ccc2[nH]nc(-c3cnoc3)c2c1` (single isomer, unassigned) [192, enantiomer 1, 4-((3-(Isoxazol-4-yl)-1H-indazol-5-yl)amino)chromane-7-carbonitrile], the IC50 on LRRK2 WT and at LRRK2 G2019S was 0.1 to 1 µM in each case.

With `N#Cc1ccc2c(c1)OCC[C@@H]2Nc1ccc2[nH]nc(-c3cnoc3)c2c1` (single isomer, unassigned) [192, enantiomer 2, 4-((3-(Isoxazol-4-yl)-1H-indazol-5-yl)amino)chromane-7-carbonitrile], the IC50 on LRRK2 WT and at LRRK2 G2019S was < 0.1 µM each time.

Turning to `N#Cc1ccc2c(c1)OCC[C@@H]2Nc1ccc2[nH]nc(I)c2c1` (single isomer, unassigned) [193, enantiomer 1, 4-((3-Iodo-1H-indazol-5-yl)amino)chromane-7-carbonitrile], the IC50 at LRRK2 WT is 1 to 10 µM; on LRRK2 G2019S, 0.1 to 1 µM.

Take `N#Cc1ccc2c(c1)OCC[C@@H]2Nc1ccc2[nH]nc(I)c2c1` (single isomer, unassigned) [193, enantiomer 2, 4-((3-Iodo-1H-indazol-5-yl)amino)chromane-7-carbonitrile]: the half-maximal inhibitory concentration (IC50) at LRRK2 WT and at LRRK2 G2019S was < 0.1 µM in each case.

For `N#Cc1cnc2c(c1)OCC[C@@H]2Nc1ccc2[nH]nc(-c3cnco3)c2c1` (single isomer, unassigned) [194, enantiomer 1, 4-((3-(Oxazol-5-yl)-1H-indazol-5-yl)amino)-3,4-dihydro-2H-pyrano[3,2-b]pyridine-7-carbonitrile], the IC50 at LRRK2 WT and at LRRK2 G2019S was < 0.1 µM each time.

As to `N#Cc1cnc2c(c1)OCC[C@@H]2Nc1ccc2[nH]nc(-c3cnco3)c2c1` (single isomer, unassigned) [194, enantiomer 2, 4-((3-(Oxazol-5-yl)-1H-indazol-5-yl)amino)-3,4-dihydro-2H-pyrano[3,2-b]pyridine-7-carbonitrile], the IC50 on LRRK2 WT and on LRRK2 G2019S was 0.1 to 1 µM in each case.

Broadly, the IC50 is the point on the concentration scale where inhibition reaches its midpoint.

(Values after patent US20230148214A1, “INDAZOLES AND AZAINDAZOLES AS LRRK2 INHIBITORS” (ESCAPE Bio, Inc., priority 2020, published 2023).)
